We go through 88 compounds from a melting point compilation (Tetko et al.).

`N#CCCn1cc(C(N)=O)cn1` registered a melting point of 179 to 181 °C.

`COC(=O)c1ccccc1CC(=O)O` registered a melting point of 139 to 141 °C.

With `CC(=O)Nc1cccc(CN)c1`, the melting point lay within 82 to 84 °C.

Turning to `COc1c([N+](=O)[O-])ccc2[nH]ncc12`, the melting point was 219 to 221 °C.

As for `O=C1Cc2ccccc2C(=O)N1`, the melting point lay within 190 to 192 °C.

The compound `CN(CCO)C1(CN)CCCCC1` registered a melting point of 73 to 75 °C.

`Cc1n[nH]c(N)c1-c1ccc2c(c1)OCCO2`: the melting point fell in the range of 120 to 122 °C.

On to `OCc1cc(Br)cs1`, for which the melting point lay within 30 to 32 °C.

Turning to `O=c1[nH]cnc2c1CCNC2`, the melting point was in the range of 251 to 253 °C.

As to `COCCN(C)S(N)(=O)=O`, the melting point lay in the range of 34 to 36 °C.

Regarding `COC(=O)c1c[nH]c(CC(C)C)n1`, the melting point was in the range of 136 to 138 °C.

`CCC(C)c1ccc(-c2csc(N)n2)cc1` (stereo not drawn) returned a melting point of 77 to 79 °C.

The compound `Nc1cc(-c2ccoc2)nn1-c1ccccc1` had a melting point of 129 to 131 °C.

`CNC(=O)c1ccc(CN)cc1` yielded a melting point of 90 to 92 °C.

For the compound `COc1ccccc1NC(=O)CC(N)=S`, the melting point was 146 to 148 °C.

`Cc1cc2oc(=O)cc(CCl)c2cc1C` returned a melting point of 188 to 190 °C.

In the case of `Cc1cncc(C(=O)O)c1O`, the melting point was in the range of 249 to 251 °C.

With `Cc1cc(C)c(CCNC(=O)CCl)c(C)c1`, the melting point lay within 143 to 145 °C.

As to `O=C(O)CNC(=O)c1ccccc1I`, the melting point is 174 to 176 °C.

Regarding `O=C1CCCN1C1CCNCC1`, the melting point is 84 to 86 °C.

For the compound `O=C(CCCl)Nc1ccc(Br)cc1`, the melting point lay within 126 to 128 °C.

For the compound `CC(=O)Nc1ccc(S(=O)(=O)N2CCC(=O)CC2)cc1`, the melting point fell in the range of 145 to 147 °C.

For the compound `Cc1sc2nc(C(C)Cl)[nH]c(=O)c2c1C` (stereo not drawn), the melting point lay in the range of 215 to 217 °C.

`N#Cc1ccc(=O)[nH]c1` had a melting point of 253 to 255 °C.

In the case of `Cc1cc(NC(C)C)ccc1C(N)=O`, the melting point fell in the range of 132 to 134 °C.

As for `N#Cc1cc(Br)cc(S(N)(=O)=O)c1`, the melting point was 199 to 201 °C.

Turning to `Oc1ccccc1SC(F)(F)F`, the melting point fell in the range of 32 to 34 °C.

`Cc1cc(C)n(C(C)C(=O)Nc2ccc(N)cc2Cl)n1` (stereo not drawn) had a melting point of 198 to 200 °C.

On to `CNC(=O)c1ccccc1O`, for which the melting point lay in the range of 83 to 85 °C.

Consider `CN(C(=O)CC#N)c1ccccc1`, for which the melting point was in the range of 86 to 88 °C.

`Cc1cccc(C)c1OCCO` displayed a melting point of 70 to 72 °C.

Compound `C=CC(=O)Nc1cccc(Cl)c1` displayed a melting point of 106 to 108 °C.

In turn, `CC(C)C(=O)Nc1ccc(C(=O)O)cc1` displayed a melting point of 240 to 242 °C.

As to `COC1CCN(C(=O)Nc2cccc(C(=O)O)c2)CC1`, the melting point fell in the range of 196 to 198 °C.

Consider `Cc1ccc(N2C(=O)CCC(C(=O)O)C2c2cccs2)cc1` (stereo not drawn), for which the melting point was in the range of 249 to 251 °C.

The compound `Nc1cccc(Cl)c1Sc1ccccn1` displayed a melting point of 87 to 89 °C.

As to `Cc1ccc(C(N)=O)c(F)c1`, the melting point was 145 to 147 °C.

`Sc1nnc(SCc2ccccc2Cl)[nH]1` returned a melting point of 132 to 135 °C.

`Nc1cc(C(=O)O)cc(C(F)(F)F)c1` gave a melting point of 141 to 146 °C.

In turn, `CC(C)COc1cn(-c2ccccc2)nc1C(=O)O` came in with a melting point of 132 to 134 °C.

`NC(Cc1c[nH]c2ccc([N+](=O)[O-])cc12)C(=O)O` (stereo not drawn) displayed a melting point of 259 to 261 °C.

For the compound `CC1(c2ccc(C(F)(F)F)cc2)NC(=O)NC1=O` (stereo not drawn), the melting point is 169 to 171 °C.

As to `NC(=O)N1CCCC(C(=O)O)C1` (stereo not drawn), the melting point is 181 to 185 °C.

For `CCOc1ccc(CN2C(=O)c3ccccc3C2=O)cc1C(=O)O`, the melting point fell in the range of 172 to 174 °C.

For `CC(C)(C)C1CCc2sc(-c3nnc(S)o3)cc2C1` (stereo not drawn), the melting point is 176 to 178 °C.

For the compound `Cc1ccc(N2CC(C(=O)O)CC2=O)cc1` (stereo not drawn), the melting point was 184 to 186 °C.

The compound `CC(N)=C(C#N)C(=O)O` gave a melting point of 319 to 321 °C.

For the compound `O=S(=O)(Cl)CCc1ccccc1`, the melting point is 30 to 32 °C.

Consider `O=C(O)c1cnn(-c2ccc(Cl)cc2Cl)c1`, for which the melting point lay within 246 to 248 °C.

As for `Cc1noc2ncc(C(=O)O)cc12`, the melting point fell in the range of 229 to 231 °C.

For the compound `Cc1cc(C(=O)O)c(C)n1Cc1ccc(S(N)(=O)=O)cc1`, the melting point is 198 to 202 °C.

In turn, `Brc1ccc(CN2CCNCC2)s1` yielded a melting point of 50 to 52 °C.

`COC(=O)c1ccc(C(N)=S)cc1` displayed a melting point of 189 to 191 °C.

The compound `Nc1ccc2cccc(Cl)c2n1` yielded a melting point of 165 to 167 °C.

Compound `CCCCS(=O)(=O)Nc1ccc(F)c(N)c1` showed a melting point of 71 to 73 °C.

Regarding `Cc1ccc(C(=O)O)cc1NC(=O)NC(C)(C)C`, the melting point was in the range of 336 to 338 °C.

In turn, `CCOC(=O)c1cnn(-c2ncccn2)c1N` showed a melting point of 181 to 183 °C.

Turning to `CCOC(=O)C1SC(=N)NC1=O` (stereo not drawn), the melting point was 175 to 177 °C.

Compound `CC(Nc1ccc(C(=O)O)cc1[N+](=O)[O-])c1ccccn1` (stereo not drawn) returned a melting point of 204 to 206 °C.

On to `N#CC=CS(=O)(=O)c1ccc(Cl)cc1`, for which the melting point fell in the range of 141 to 143 °C.

In turn, `O=C(O)c1c[nH]cc1-c1ccc([N+](=O)[O-])cc1` showed a melting point of 209 to 211 °C.

Take `O=C(O)CS(=O)(=O)c1ccc([N+](=O)[O-])cc1`: the melting point is 162 to 164 °C.

Compound `NC(C(=O)O)(c1cccc(C(F)(F)F)c1)C(F)(F)F` (stereo not drawn) came in with a melting point of 119 to 121 °C.

As for `[N-]=[N+]=Nc1cccc2cccnc12`, the melting point lay in the range of 42 to 44 °C.

Turning to `CS(=O)(=O)c1cccnc1`, the melting point lay in the range of 54 to 56 °C.

As to `CSc1ccsc1C(=O)O`, the melting point was 194 to 196 °C.

Compound `Cc1cc(C(=O)CCl)c(C)[nH]1` returned a melting point of 143 to 145 °C.

Compound `CCOc1ccc(NS(=O)(=O)c2ccc(C)c(C(=O)O)c2)cc1` showed a melting point of 231 to 233 °C.

In turn, `O=C(O)c1oc2ccccc2c1CSC1CCCCC1` displayed a melting point of 158 to 160 °C.

Compound `O=c1[nH]cnc2ccc([N+](=O)[O-])cc12` displayed a melting point of 284 to 286 °C.

In the case of `CN(CCO)CC(=O)O`, the melting point lay in the range of 136 to 138 °C.

Compound `O=C(O)c1ccc2c(c1)[nH]c(=O)n2C1CCCC1` came in with a melting point of 315 to 317 °C.

For the compound `O=C(O)CS(=O)(=O)Cc1cccc(Br)c1`, the melting point fell in the range of 173 to 175 °C.

In the case of `Cc1ccc(-c2nn(-c3ccccc3)cc2C=CC(=O)O)cc1`, the melting point was 220 to 222 °C.

For the compound `Cc1ccnn1-c1ccccn1`, the melting point was 34 to 36 °C.

As for `O=C(O)c1cnoc1-c1ccc(Cl)cc1`, the melting point lay in the range of 205 to 207 °C.

Take `O=C(NCc1ccccc1)c1cccc(O)c1`: the melting point lay in the range of 140 to 142 °C.

Consider `Nc1cccnc1C(=O)O`, for which the melting point fell in the range of 218 to 220 °C.

Turning to `Cc1ccc(C)c(SCC(=O)O)c1`, the melting point was in the range of 73 to 75 °C.

In the case of `NS(=O)(=O)c1cnn(CC(=O)O)c1`, the melting point is 156 to 158 °C.

For `O=C(O)C1CCN(C(=O)c2ccco2)CC1`, the melting point lay within 127 to 129 °C.

Regarding `Cc1c(C(=O)O)sc2ccsc12`, the melting point is 235 to 237 °C.

The compound `O=C(O)c1ncoc1CCC(F)(F)F` displayed a melting point of 139 to 141 °C.

For `NCc1cccc(OCC(N)=O)c1`, the melting point is 89 to 91 °C.

Regarding `Cc1ccc(CC(=O)O)cn1`, the melting point was in the range of 159 to 161 °C.

In turn, `COC(=O)c1cccc(OCC(N)=NO)c1` returned a melting point of 134 to 136 °C.

As for `CN1CCc2ncnc(Cl)c2C1`, the melting point lay within 67 to 69 °C.

As for `CC(C)(C)OC(=O)Nc1ccc(C=O)cn1`, the melting point was 169 to 171 °C.
